From ChEMBL document CHEMBL5360618, “PepScaf: Harnessing Machine Learning with In Vitro Selection toward De Novo Macrocyclic Peptides against IL-17C/IL-17RE Interaction” (J Med Chem, 2023)
Positions of bridges follow the written chain, without caps; N, C: chain ends. Residues, ends and D or L forms follow the SMILES beside them.

Target: T1, IL17-RE-IL-17C (Homo sapiens, UniProt Q8NFR9+Q9P0M4)
T1 sequence (Q9P0M4 whole entry): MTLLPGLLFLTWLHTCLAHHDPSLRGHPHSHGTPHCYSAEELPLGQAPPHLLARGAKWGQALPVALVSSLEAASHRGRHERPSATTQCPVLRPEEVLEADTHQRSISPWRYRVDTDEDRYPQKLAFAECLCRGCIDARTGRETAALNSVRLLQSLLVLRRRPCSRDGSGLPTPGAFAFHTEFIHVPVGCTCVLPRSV
T1 sequence (Q8NFR9 whole entry): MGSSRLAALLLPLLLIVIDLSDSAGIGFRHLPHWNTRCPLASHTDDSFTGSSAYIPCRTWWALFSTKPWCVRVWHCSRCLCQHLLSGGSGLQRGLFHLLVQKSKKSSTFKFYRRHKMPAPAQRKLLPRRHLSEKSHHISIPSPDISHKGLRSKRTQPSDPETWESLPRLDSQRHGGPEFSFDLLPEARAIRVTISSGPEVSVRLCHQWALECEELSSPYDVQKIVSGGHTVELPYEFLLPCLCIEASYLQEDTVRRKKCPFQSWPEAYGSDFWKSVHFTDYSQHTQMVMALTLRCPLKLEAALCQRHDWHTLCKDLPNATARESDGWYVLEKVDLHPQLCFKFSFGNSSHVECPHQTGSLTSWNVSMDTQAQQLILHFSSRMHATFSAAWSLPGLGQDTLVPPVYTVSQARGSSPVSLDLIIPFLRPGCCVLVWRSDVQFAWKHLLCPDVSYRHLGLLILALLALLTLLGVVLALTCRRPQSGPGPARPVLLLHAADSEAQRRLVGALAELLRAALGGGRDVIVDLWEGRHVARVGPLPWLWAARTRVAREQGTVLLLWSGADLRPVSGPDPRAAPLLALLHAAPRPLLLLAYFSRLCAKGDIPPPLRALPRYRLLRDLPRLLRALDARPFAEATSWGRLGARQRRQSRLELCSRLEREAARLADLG
Assay: Inhibition of IL-17C/IL-17RE interaction (unknown origin) incubated for 1.5 hrs by ELISA method
Type: protein-complex assay

Which IC50 does the source give for `CC[C@H](C)[C@@H]1NC(=O)[C@H](CCCNC(=N)N)NC(=O)[C@H](C)NC(=O)[C@H](Cc2ccc(O)cc2)NC(=O)[C@H](Cc2c[nH]cn2)NC(=O)[C@H](Cc2c[nH]cn2)NC(=O)[C@H](Cc2ccc(O)cc2)NC(=O)CSC[C@@H](C(=O)NCC(N)=O)NC(=O)CNC(=O)[C@H](CC(C)C)NC(=O)[C@H](CCC(=O)O)NC(=O)CNC(=O)[C@H](Cc2ccc(O)cc2)NC(=O)[C@H](CC(C)C)NC1=O` ({CH2CO}-YHHYARILYGELGCG-NH2; thioether N-14) here?
Its IC50 is > 30000 nM.

For `CC[C@H](C)[C@@H]1NC(=O)[C@H](CCCNC(=N)N)NC(=O)[C@H](Cc2c[nH]cn2)NC(=O)[C@H](Cc2ccc(O)cc2)NC(=O)[C@H](Cc2c[nH]cn2)NC(=O)[C@H](Cc2c[nH]cn2)NC(=O)[C@H](Cc2ccc(O)cc2)NC(=O)CSC[C@@H](C(=O)NCC(N)=O)NC(=O)CNC(=O)[C@H](CC(C)C)NC(=O)[C@H](CCC(=O)O)NC(=O)CNC(=O)[C@H](Cc2ccc(O)cc2)NC(=O)[C@H](CC(C)C)NC1=O` ({CH2CO}-YHHYHRILYGELGCG-NH2; thioether N-14), which IC50 is on record?
The IC50 was > 30000 nM.

Which IC50 does the source give for `CC[C@H](C)[C@@H]1NC(=O)[C@H](CO)NC(=O)[C@H](Cc2ccc(O)cc2)NC(=O)[C@H](Cc2ccc(O)cc2)NC(=O)[C@H]([C@@H](C)CC)NC(=O)[C@H](Cc2c[nH]cn2)NC(=O)[C@H](CC(N)=O)NC(=O)[C@H](Cc2ccccc2)NC(=O)[C@H](Cc2ccccc2)NC(=O)[C@H](CCC(N)=O)NC(=O)[C@H](CC(=O)O)NC(=O)[C@H]([C@@H](C)CC)NC(=O)[C@H](Cc2ccc(O)cc2)NC(=O)CSC[C@@H](C(=O)NCC(N)=O)NC1=O` ({CH2CO}-YIDQFFNHIYYSICG-NH2; thioether N-14) here?
The IC50 was 14700 nM.

Which IC50 does the source give for `CC[C@H](C)[C@@H]1NC(=O)[C@H](Cc2c[nH]cn2)NC(=O)[C@H](Cc2ccc(O)cc2)NC(=O)CSC[C@@H](C(=O)NCC(N)=O)NC(=O)CNC(=O)[C@H](CC(C)C)NC(=O)[C@H](CO)NC(=O)CNC(=O)[C@H](Cc2ccc(O)cc2)NC(=O)[C@H](CC(C)C)NC(=O)[C@H](CO)NC(=O)[C@H](CO)NC(=O)[C@H](Cc2ccc(O)cc2)NC(=O)[C@H](Cc2ccc(O)cc2)NC1=O` ({CH2CO}-YHIYYSSLYGSLGCG-NH2; thioether N-14) here?
Its IC50 is 7 nM.

How did the IC50 turn out when `CC[C@H](C)[C@@H]1NC(=O)[C@H](Cc2c[nH]cn2)NC(=O)[C@H](Cc2ccc(O)cc2)NC(=O)CSC[C@@H](C(=O)NCC(N)=O)NC(=O)CNC(=O)[C@H](CC(C)C)NC(=O)[C@H]([C@H](C)O)NC(=O)CNC(=O)[C@H](Cc2ccc(O)cc2)NC(=O)[C@H](CC(C)C)NC(=O)[C@H](CO)NC(=O)[C@H](Cc2ccc(O)cc2)NC(=O)[C@H](Cc2ccc(O)cc2)NC(=O)[C@H](Cc2ccc(O)cc2)NC1=O` was run?
Its IC50 is 2.9 nM.

For `CC[C@H](C)[C@@H]1NC(=O)[C@H](CCCNC(=N)N)NC(=O)[C@H](Cc2ccc(O)cc2)NC(=O)[C@H](Cc2ccc(O)cc2)NC(=O)[C@H](Cc2cnc[nH]2)NC(=O)[C@H](Cc2cnc[nH]2)NC(=O)[C@H](Cc2ccc(O)cc2)NC(=O)CSC[C@@H](C(=O)NCC(N)=O)NC(=O)CNC(=O)[C@@H]2CCCN2C(=O)[C@H](CCC(=O)O)NC(=O)CNC(=O)[C@H](Cc2ccc(O)cc2)NC(=O)[C@H](CC(C)C)NC1=O` ({CH2CO}-YHHYYRILYGEPGCG-NH2; thioether N-14), which IC50 is on record?
The IC50 was > 30000 nM.

How did the IC50 turn out when `CC[C@H](C)[C@@H]1NC(=O)[C@H](CCCNC(=N)N)NC(=O)[C@H](Cc2ccc(O)cc2)NC(=O)[C@H](Cc2ccc(O)cc2)NC(=O)C(C)NC(=O)[C@H](Cc2c[nH]cn2)NC(=O)[C@H](Cc2ccc(O)cc2)NC(=O)CSC[C@@H](C(=O)NCC(N)=O)NC(=O)CNC(=O)[C@H](CC(C)C)NC(=O)[C@H](CCC(=O)O)NC(=O)CNC(=O)[C@H](Cc2ccc(O)cc2)NC(=O)[C@H](CC(C)C)NC1=O` (single isomer, unassigned) was run?
The IC50 was 529 nM.

For `CC(C)C[C@@H]1NC(=O)[C@H](CC(C)C)NC(=O)[C@H](CO)NC(=O)[C@H](CCC(=O)O)NC(=O)[C@H](CC(C)C)NC(=O)[C@H](Cc2ccc(O)cc2)NC(=O)CSC[C@@H](C(=O)NCC(N)=O)NC(=O)[C@H](Cc2ccc(O)cc2)NC(=O)[C@H](Cc2ccc(O)cc2)NC(=O)[C@H](CC(N)=O)NC(=O)[C@H](CC(N)=O)NC(=O)[C@H](CO)NC(=O)CNC1=O` ({CH2CO}-YLESLLGSNNYYCG-NH2; thioether N-13), which IC50 is on record?
Its IC50 is > 30000 nM.

Which IC50 does the source give for `CC[C@H](C)[C@@H]1NC(=O)[C@H](CCCNC(=N)N)NC(=O)[C@H](Cc2ccc(O)cc2)NC(=O)[C@H](Cc2ccc(O)cc2)NC(=O)[C@H](Cc2c[nH]cn2)NC(=O)[C@H](Cc2c[nH]cn2)NC(=O)[C@H](Cc2ccc(O)cc2)NC(=O)CSC[C@@H](C(=O)NCC(N)=O)NC(=O)CNC(=O)[C@H](CC(C)C)NC(=O)[C@H](C(C)C)NC(=O)CNC(=O)[C@H](Cc2ccc(O)cc2)NC(=O)[C@H](CC(C)C)NC1=O` ({CH2CO}-YHHYYRILYGVLGCG-NH2; thioether N-14) here?
The IC50 was 442 nM.

`CC[C@H](C)[C@@H]1NC(=O)[C@@H]2CCCN2C(=O)[C@H](CCCNC(=N)N)NC(=O)[C@H](Cc2c[nH]c3ccccc23)NC(=O)[C@H](Cc2ccccc2)NC(=O)[C@H](CC(N)=O)NC(=O)[C@@H]2CCCN2C(=O)[C@H](Cc2ccccc2)NC(=O)[C@H](Cc2c[nH]c3ccccc23)NC(=O)[C@H](Cc2ccc(O)cc2)NC(=O)CSC[C@@H](C(=O)NCC(N)=O)NC(=O)[C@H](CC(N)=O)NC1=O` ({CH2CO}-YWFPNFWRPINCG-NH2; thioether N-12) was tested. Which IC50 did it give?
The IC50 was > 30000 nM.

With `CC(C)C[C@@H]1NC(=O)[C@H](CCC(=O)O)NC(=O)CNC(=O)[C@H](Cc2ccc(O)cc2)NC(=O)[C@H](CC(C)C)NC(=O)[C@H](Cc2ccccc2)NC(=O)[C@H](CCCNC(=N)N)NC(=O)[C@H](Cc2ccc(O)cc2)NC(=O)[C@H](Cc2ccc(O)cc2)NC(=O)[C@H](Cc2c[nH]cn2)NC(=O)[C@H](Cc2c[nH]cn2)NC(=O)[C@H](Cc2ccc(O)cc2)NC(=O)CSC[C@@H](C(=O)NCC(N)=O)NC(=O)CNC1=O` ({CH2CO}-YHHYYRFLYGELGCG-NH2; thioether N-14) as the compound, how does the IC50 read?
Its IC50 is 1670 nM.

Which IC50 does the source give for `CC(C)C[C@@H]1NC(=O)[C@H](Cc2c[nH]c3ccccc23)NC(=O)[C@H](CC(N)=O)NC(=O)[C@H](CC(=O)O)NC(=O)[C@H](Cc2ccccc2)NC(=O)[C@H](Cc2c[nH]cn2)NC(=O)[C@H](Cc2ccc(O)cc2)NC(=O)CSC[C@@H](C(=O)NCC(N)=O)NC(=O)[C@H](CC(C)C)NC(=O)[C@H](Cc2ccccc2)NC(=O)[C@H](C(C)C)NC(=O)[C@H](CCCNC(=N)N)NC1=O` ({CH2CO}-YHFDNWLRVFLCG-NH2; thioether N-12) here?
Its IC50 is > 30000 nM.

`CC(C)C[C@@H]1NC(=O)[C@H](Cc2c[nH]c3ccccc23)NC(=O)[C@H](C)NC(=O)[C@H](CC(=O)O)NC(=O)[C@H](Cc2ccccc2)NC(=O)[C@H](Cc2c[nH]cn2)NC(=O)[C@H](Cc2ccc(O)cc2)NC(=O)CSC[C@@H](C(=O)NCC(=O)O)NC(=O)[C@H](CC(C)C)NC(=O)[C@H](Cc2ccc(O)cc2)NC(=O)[C@H](CC(=O)O)NC(=O)[C@H](CCCCN)NC1=O` ({CH2CO}-YHFDAWLKDYLCG-OH; thioether N-12) was tested. Which IC50 did it give?
The IC50 was > 30000 nM.

Which IC50 does the source give for `CC[C@H](C)[C@@H]1NC(=O)[C@H](Cc2c[nH]c3ccccc23)NC(=O)[C@H](CC(N)=O)NC(=O)[C@H](Cc2ccc(O)cc2)NC(=O)[C@H](Cc2ccc(O)cc2)NC(=O)CSC[C@@H](C(=O)NCC(N)=O)NC(=O)[C@H](CO)NC(=O)[C@H]([C@@H](C)O)NC(=O)[C@H](CC(N)=O)NC(=O)[C@H](Cc2ccc(O)cc2)NC(=O)[C@H](Cc2ccc(O)cc2)NC(=O)[C@H](Cc2ccccc2)NC(=O)[C@H](Cc2c[nH]cn2)NC(=O)[C@H](CC(=O)O)NC1=O` ({CH2CO}-YYNWIDHFYYNTSCG-NH2; thioether N-14) here?
The IC50 was > 30000 nM.

For `CC(C)C[C@@H]1NC(=O)[C@H](CCC(=O)O)NC(=O)CNC(=O)[C@H](Cc2ccc(O)cc2)NC(=O)[C@H](CC(C)C)NC(=O)[C@H]([C@@H](C)O)NC(=O)[C@H](CCCNC(=N)N)NC(=O)[C@H](Cc2ccc(O)cc2)NC(=O)[C@H](Cc2ccc(O)cc2)NC(=O)[C@H](Cc2c[nH]cn2)NC(=O)[C@H](Cc2c[nH]cn2)NC(=O)[C@H](Cc2ccc(O)cc2)NC(=O)CSC[C@@H](C(=O)NCC(N)=O)NC(=O)CNC1=O` ({CH2CO}-YHHYYRTLYGELGCG-NH2; thioether N-14), which IC50 is on record?
The IC50 was 288 nM.

`CC[C@H](C)[C@@H]1NC(=O)[C@H](Cc2cnc[nH]2)NC(=O)[C@H](Cc2ccc(O)cc2)NC(=O)CSC[C@@H](C(=O)NCC(N)=O)NC(=O)CNC(=O)[C@H](CC(C)C)NC(=O)[C@H](CO)NC(=O)CNC(=O)[C@H](Cc2ccc(O)cc2)NC(=O)[C@H](CC(C)C)NC(=O)[C@H](CO)NC(=O)[C@H](C)NC(=O)[C@H](Cc2ccc(O)cc2)NC(=O)[C@@H](Cc2ccc(O)cc2)NC1=O` was tested. Which IC50 did it give?
Its IC50 is 4.9 nM.

How did the IC50 turn out when `CC(C)C[C@@H]1NC(=O)[C@H](CC(N)=O)NC(=O)CNC(=O)[C@H](Cc2ccc(O)cc2)NC(=O)[C@H](CC(C)C)NC(=O)[C@H](CO)NC(=O)[C@H](C)NC(=O)[C@H](Cc2ccc(O)cc2)NC(=O)[C@H](Cc2ccc(O)cc2)NC(=O)[C@H](CC(C)C)NC(=O)[C@H](Cc2c[nH]cn2)NC(=O)[C@H](Cc2ccc(O)cc2)NC(=O)CSC[C@@H](C(=O)NCC(N)=O)NC(=O)CNC1=O` ({CH2CO}-YHLYYASLYGNLGCG-NH2; thioether N-14) was run?
Its IC50 is 9.6 nM.
